Assay results reported in ChEMBL document CHEMBL1133583, “Design of cancer-specific antitumor agents based on aziridinylcyclopent[b]indoloquinones” (J Med Chem, 2000).

Tests used:
Format in all cases: functional
Breast carcinoma cell = experiment: In vitro cytotoxicity against breast cancer cells.; settings: Homo sapiens
CNS carcinoma cell = experiment: In vitro cytotoxicity against CNS cancer cells; settings: Homo sapiens
Colon carcinoma cell = experiment: In vitro cytotoxicity against colon cancer cells; settings: Homo sapiens
[1] = In vitro cytotoxicity against Leukemia cancer cells.; settings: Homo sapiens, Cancer cell lines
Melanoma cell = experiment: In vitro cytotoxicity against melanoma cancer cells; settings: Homo sapiens
Homo sapiens = species: Homo sapiens; experiment: In vitro cytotoxicity against non-small-cell lung cancer cells; settings: Cancer cell lines, read-out: Log LC50 (the source's name) (converted)
Ovarian carcinoma cell = experiment: In vitro cytotoxicity against ovarian cancer cells; settings: Homo sapiens
Prostatic carcinoma cell = experiment: In vitro cytotoxicity against prostate cancer cells.; settings: Homo sapiens, read-out: Log LC50 (the source's name) (converted)
Renal cancer cell line = experiment: (§1) In vitro cytotoxicity against renal cancer cells.; settings: Homo sapiens, read-out: Log LC50 (the source's name) (converted)
[2] = as §1; settings: Homo sapiens, Cancer cell lines; read-out: Log LC50 (the source's name) (converted)

Row | SMILES | LC50 (concentration killing 50% of cells) (Breast carcinoma cell) | LC50 (CNS carcinoma cell) | LC50 (50% lethal concentration) (Colon carcinoma cell) | LC50 (lethal concentration 50%) [1] | LC50 (Melanoma cell) | CC50 (Homo sapiens) | LC50 (Ovarian carcinoma cell) | CC50 (Prostatic carcinoma cell) | CC50 (Renal cancer cell line) | CC50 [2]
1 | CC(=O)OC1CCc2c3c(n(C(C)=O)c21)C(=O)C(N1CC1)=C(C)C3=O (stereo not drawn) | 31.6 µM | 17.8 µM | 17 µM | > 100 µM | 8.71 µM | 38 µM | 66.1 µM | 19.5 µM | 16.6 µM | 
2 | COC1CCc2c1[nH]c1c2C(=O)C(C)=C(N2CC2)C1=O (stereo not drawn) | 46.8 µM | 67.6 µM | 47.9 µM | 87.1 µM | 12 µM | 63.1 µM | > 100 µM | 34.7 µM |  | 26.3 µM
3 | CC(=O)OC1CCc2c1[nH]c1c2C(=O)C(C)=C(N2CC2)C1=O (stereo not drawn) | 29.5 µM | 20 µM | 14.1 µM | 50.1 µM | 10.2 µM | 22.4 µM | 39.8 µM | 23.4 µM | 19.1 µM | 
4 | CC1=C(N2CC2)C(=O)c2c([nH]c(C)c2C)C1=O |  |  |  |  |  | 51.3 µM |  | > 100 µM |  | > 100 µM
5 | CC(=O)OCc1[nH]c2c(c1C)C(=O)C(N1CC1)=C(C)C2=O | 26.9 µM | 14.8 µM | 8.32 µM | > 100 µM | 2.29 µM | 33.1 µM | 34.7 µM | 9.77 µM | 28.8 µM | 
6 | CC1=C(N2CC2)C(=O)c2[nH]c(C)c(C)c2C1=O | > 100 µM | > 100 µM | 89.1 µM | > 100 µM | 70.8 µM | 50.1 µM | > 100 µM | > 100 µM | > 100 µM | 
7 | CC1=C(N2CC2)C(=O)c2[nH]c(CO)c(C)c2C1=O | 89.1 µM | 89.1 µM | 63.1 µM | > 100 µM | 39.8 µM | 79.4 µM | > 100 µM | 63.1 µM |  | 58.9 µM
8 | CC1=C(N2CC2)C(=O)c2[nH]c3c(c2C1=O)CCC3=O | 12.6 µM | 7.41 µM | 3.63 µM | > 100 µM | 1.02 µM | 4.27 µM | 13.8 µM | 15.8 µM | 4.57 µM | 
9 | CC(=O)OCc1[nH]c2c(c1C)C(=O)C(C)=C(N1CC1)C2=O | > 100 µM | > 100 µM | > 100 µM | > 100 µM | 70.8 µM | 79.4 µM | > 100 µM | > 100 µM |  | 72.4 µM
10 | CC1=C(N2CC2)C(=O)c2[nH]c3c(c2C1=O)CCC3O (stereo not drawn) | 33.9 µM | 28.8 µM | 35.5 µM | 87.1 µM | 14.1 µM | 60.3 µM | 89.1 µM | 31.6 µM |  | 18.6 µM
11 | CC1=C(N2CC2)C(=O)c2c([nH]c(CO)c2C)C1=O | 27.5 µM | > 100 µM | 47.9 µM | > 100 µM | 4.07 µM | 42.7 µM | > 100 µM | 16.6 µM | 29.5 µM | 
